Among the data in patent US7235549B2, “Benzamide, heteroarylamide and reverse amides” (Pfizer Inc., priority 2001, dated 2007) are melting point values, retold here.

The molecule `O=C(NCCc1ccccc1C(F)(F)F)c1cc(-n2ncc(=O)[nH]c2=O)ccc1Cl` [Example 48, 2-Chloro-5-(3,5-dioxo-4,5-dihydro-3H-[1,2,4]triazin-2-yl)-N-[2-(2-trifluoromethyl-phenyl)-ethyl]-benzamide] came in with a melting point of 148 to 150 °C.
